From patent publication US20050197350A1, “Novel quinoline, tetrahydroquinazoline, and pyrimidine derivatives and methods of treatment related to the use thereof” (TAISHO PHARMACEUTICAL CO., LTD., priority 2003, published 2005)

tested on: MCH receptors; assay: MCH receptor activity class (method not given); settings: class by percent of control at 10^-7 M or IC50

Row | Structure (SMILES) | class
1 | COc1cc(F)c(CNC[C@H]2CC[C@@H](Nc3cc(N(C)C)c4ccccc4n3)CC2)cc1OC [compound 1200] | 3 (Class 3 The value of percent of control at 10^−7 M was more than 60% or the value of IC50 was more than 200 nM.)
2 | CCc1ccccc1CNC[C@H]1CC[C@@H](Nc2cc(N(C)C)c3ccccc3n2)CC1 [compound 1201] | 3 (Class 3 The value of percent of control at 10^−7 M was more than 60% or the value of IC50 was more than 200 nM.)
3 | CN(C)c1cc(N[C@H]2CC[C@@H](CNCc3ccc(N(C)CCC#N)cc3)CC2)nc2ccccc12 [compound 1202] | 3 (Class 3 The value of percent of control at 10^−7 M was more than 60% or the value of IC50 was more than 200 nM.)
4 | CN(C)c1cc(N[C@H]2CC[C@@H](CNCc3ccc(OCc4ccc(Br)cc4)cc3)CC2)nc2ccccc12 [compound 1203] | 3 (Class 3 The value of percent of control at 10^−7 M was more than 60% or the value of IC50 was more than 200 nM.)
5 | CCOc1c(Br)cc(Br)cc1CNC[C@H]1CC[C@@H](Nc2cc(N(C)C)c3ccccc3n2)CC1 [compound 1204] | 3 (Class 3 The value of percent of control at 10^−7 M was more than 60% or the value of IC50 was more than 200 nM.)
6 | COc1cccc(OC)c1CN[C@H]1CC[C@@H](Nc2nccc(N(C)C)n2)CC1 [compound 1205] | 3 (Class 3 The value of percent of control at 10^−7 M was more than 60% or the value of IC50 was more than 200 nM.)
7 | CCOc1ccccc1CN[C@H]1CC[C@@H](Nc2nccc(N(C)C)n2)CC1 [compound 1206] | 3 (Class 3 The value of percent of control at 10^−7 M was more than 60% or the value of IC50 was more than 200 nM.)
8 | CN(C)c1ccnc(N[C@H]2CC[C@@H](NCc3c[nH]c4ccccc34)CC2)n1 [compound 1207] | 3 (Class 3 The value of percent of control at 10^−7 M was more than 60% or the value of IC50 was more than 200 nM.)
9 | COc1ccc(OC)c(CN[C@H]2CC[C@@H](Nc3nccc(N(C)C)n3)CC2)c1 [compound 1208] | 3 (Class 3 The value of percent of control at 10^−7 M was more than 60% or the value of IC50 was more than 200 nM.)
10 | COc1ccc(CN[C@H]2CC[C@@H](Nc3nccc(N(C)C)n3)CC2)c2ccccc12 [compound 1209] | 3 (Class 3 The value of percent of control at 10^−7 M was more than 60% or the value of IC50 was more than 200 nM.)
11 | COc1ccc2[nH]cc(CN[C@H]3CC[C@@H](Nc4nccc(N(C)C)n4)CC3)c2c1 [compound 1210] | 3 (Class 3 The value of percent of control at 10^−7 M was more than 60% or the value of IC50 was more than 200 nM.)
12 | COc1ccc2ccccc2c1CN[C@H]1CC[C@@H](Nc2nccc(N(C)C)n2)CC1 [compound 1211] | 3 (Class 3 The value of percent of control at 10^−7 M was more than 60% or the value of IC50 was more than 200 nM.)
13 | COc1cc(Br)cc(CN[C@H]2CC[C@@H](Nc3nccc(N(C)C)n3)CC2)c1O [compound 1212] | 3 (Class 3 The value of percent of control at 10^−7 M was more than 60% or the value of IC50 was more than 200 nM.)
14 | CN(C)c1ccnc(N[C@H]2CC[C@@H](NCc3c[nH]c4ccc(Br)cc34)CC2)n1 [compound 1213] | 2 (Class 2: The value of percent of control at 10^−7 M was from 40% to 60% or the value of IC′50 was from 50 nM to 200 nM.)
15 | COc1ccc(CN[C@H]2CC[C@@H](Nc3nccc(N(C)C)n3)CC2)c(OC)c1 [compound 1214] | 3 (Class 3 The value of percent of control at 10^−7 M was more than 60% or the value of IC50 was more than 200 nM.)
16 | COc1ccc(CN[C@H]2CC[C@@H](Nc3nccc(N(C)C)n3)CC2)c(OC)c1OC [compound 1215] | 3 (Class 3 The value of percent of control at 10^−7 M was more than 60% or the value of IC50 was more than 200 nM.)
17 | COc1cc(CN[C@H]2CC[C@@H](Nc3nccc(N(C)C)n3)CC2)cc(OC)c1O [compound 1216] | 3 (Class 3 The value of percent of control at 10^−7 M was more than 60% or the value of IC50 was more than 200 nM.)
18 | CCOc1cc(CN[C@H]2CC[C@@H](Nc3nccc(N(C)C)n3)CC2)ccc1OC [compound 1217] | 3 (Class 3 The value of percent of control at 10^−7 M was more than 60% or the value of IC50 was more than 200 nM.)
